Patent US20030203969A1, “Pharmaceutically active aromatic guanylhydrazones” (priority 2000, published 2003)

What was measured:
[1] = test system: omni-drug-resistant HIV-1; assay: Inhibition of omni-drug-resistant HIV-1 in PM1 cells (p24); assay type: cell-based
Description: PM1 cells were infected with an “omni-drug-resistant HIV-1” (recombinant HIV-1 NL4-3 in which the Protease gene and the 5′ part of the Reverse Transcriptase gene was replaced by the corresponding sequences from a omni-drug-resistant clinical isolate, resistant to all currently available anti-HIV drugs. Infected cells were incubated with Compound No. 4 at a concentration of 250, 500 and 1000 nM or DMSO (control). The culture medium was changed every third day. Cell viability (Trypan-blue staining), cell counts and p24 levels were determined at day 6 and 12.
At day 12 of infection, the virus replicated vigorously in untreated cultures. Numbers describe percent inhibition of HIV-1 replication as compared to control experiments.

[2] = test system: PI-resistant HIV-1; assay: Inhibition of multiple anti-retroviral drug resistant HIV-1 strains: PI-resistant; assay type: cell-based
Description: In addition, various different “types” of multiple anti-retroviral drug resistant HIV-1 strains were also tested: […]

[3] = test system: EBV; assay: EBV replication in TPA-induced P3HR-1 cells (TaqMan PCR); assay type: cell-based, Epstein-Barr virus
Description: Human P3HR-1 cells are latently infected with EBV. Culturing these cells in the presence of phorbol ester induces a lytic infection cycle, resulting in stimulation of viral replication within the cells. Compound efficacy in this assay is determined using TaqMan PCR technology, and compound toxicity is measured by addition of Promega's Cell Titer Aqueous One Solution (metabolic dye).
1. P3HR-1 cells are counted by the trypan blue dye exclusion method, and the cell count/ml is determined. Cells are pelleted by centrifugation and washed once with PBS to minimize the basal level of virus released from untreated cells which spontaneously enter the lytic cycle and release virus.
2. Cells are resuspended in fresh media and adjusted to the appropriate cell density. Cells are then plated in the interior wells of 96-well round-bottom microtiter plates in a volume of 50 μl per well.
3. The phorbol ester TPA is added to appropriate wells in a volume of 50 μl per well to yield a final concentration of 15 ng/ml. Medium is added in place of TPA in three wells to serve as a negative control.
4. […]
5. A standard curve prepared from known copy numbers of DNA isolated from P3HR-1 cells and amplified is run with each plate in order to quantitate the DNA copy number in each original sample. The efficacy of the compound is determined by comparing DNA copy numbers from test wells with those of control wells.

[4] = test system: Respiratory Syncytial Virus (Long); assay type: cell-based
Description: A cytoprotection assay procedure using MTS is employed to evaluate compounds for antiviral activity against Respiratory Syncytial Virus (Long) in Vero (African green monkey, ATCC Cat. No. CCL-81) cells. The cells are pre-grown overnight at 37° C. (2×10^4/well in 96 well tissue culture plates) with 10% fetal Bovine serum containing Minimum Essential Medium. The positive control for the assay is Interferon-Gamma/Ribavirin. The infection medium contains reduced serum levels (2% FBS).
Using half log dilutions with high test starting at 100 μg/ml the drug dilutions are made and added to triplicate cultures in 0.1 ml volume and pre-titrated virus suspension is also added in 0.1 ml volume. Cell control containing medium alone, virus controls containing medium and virus, the drug toxicity controls containing medium and each drug concentrations are run simultaneously with the test samples. […] CPE inhibition is determined by dye uptake procedure (Celltiter-MTS). Celltiter reagent contains a novel tetrazolium (MTS) compound and an electron coupling reagent phenazine ethosulfate (PES). MTS-tetrazolium is bioreduced by cells into a colored formazan product that is soluble in tissue culture medium. This conversion is accomplished by NADPH or NADH produced by dehydrogenase enzymes in metabolically active cells. The amount of soluble formazan produced by cellular reduction of the MTS is measured by the absorbance at 490 nm. The quantity of formazan product as measured by the amount of 490 nm absorbance is directly proportional to the number of living cells in the culture thus allowing the rapid quantitative analysis of the inhibition of virus-induced cell killing by the test substances. […]
The inhibitory drug concentration which reduces the viral replication by 95% (IC95) and the minimum drug concentration which inhibits cell growth by 95% (TC95) are calculated by using a regression analysis program for semilog curve fitting. A therapeutic (selectivity) index (TI) for compound No. 4 is determined by dividing the TC95 by the IC95.

## CC(=NNC(=N)N)c1cc(NC(=O)CCCCCCCCC(=O)Nc2cc(C(C)=NNC(=N)N)cc(C(C)=NNC(=N)N)c2)cc(C(C)=NNC(=N)N)c1 [Compound 4, N,N′-bis (3,5-diacetylphenyl) decane diamide tetrakis (amidinohydrazone)]
[1]; omni-drug-resistant HIV-1, 0.25 μM, d6
  percent inhibition of HIV-1 replication as compared to control: 15%
[1]; omni-drug-resistant HIV-1, 0.25 μM, d12
  percent inhibition of HIV-1 replication as compared to control: 64%
[1]; omni-drug-resistant HIV-1, 0.5 μM, d6
  percent inhibition of HIV-1 replication as compared to control: 30%
[1]; omni-drug-resistant HIV-1, 0.5 μM, d12
  percent inhibition of HIV-1 replication as compared to control: 95%
[1]; omni-drug-resistant HIV-1, 1.0 μM, d6
  percent inhibition of HIV-1 replication as compared to control: 58%
[1]; omni-drug-resistant HIV-1, 1.0 μM, d12
  percent inhibition of HIV-1 replication as compared to control: 97%
[2]; PI-resistant HIV-1, 0.5 μM
  [%] inhibition of virus replication: 50%
[2]; PI-resistant HIV-1, 1.0 μM
  [%] inhibition of virus replication: 95%
[3]; EBV, P3HR1 cells
  Comments: Significant Activity
[3]; EBV-infected P3HR1 cells, day 4
  IC50: 2.3 µM
[4]; RSV, at the IC95/TC95 level
  Comment: Active
[4]; Vero cells newly infected with RSV
  IC50: 1.46 µM
[4]; reduces the viral replication by 95%
  IC95: 2.96 µM
